The values below come from patent US11498896B2 (The Broad Institute, Inc., priority 2014, dated 2022).

A value given as a limit tells only on which side of the number the result lay.

The target in assay [1] is T1, human D2R/β-arrestin (Homo sapiens (Human), UniProt P14416). The assay is described as follows: cell-based. As to conditions: β-arrestin Antagonist, CHO-K1 cells expressing human D2R/β-arrestin; antagonist mode, quinpirole 130 nM.
Assay [2] has as its target T1, human D2R/β-arrestin. The assay is described as follows: cell-based. The settings on record: cAMP Antagonist, CHO-K1 cells expressing human D2R/β-arrestin; antagonist mode, 2.5 μM forskolin and 2.7 nM quinpirole.
Protocol: Cells were prepared for assays by growing cultures for up to 2 weeks (from about 6-20 passages). A vial of frozen cells was thawed in a water bath held at 37° C. The cells were then transferred into a 50 ml tube with 10 ml growth media. The vial was rinsed with growth media and the contents transferred to the 50 ml tube. The 50 ml tube was centrifuged at 1200 rpm for 5 minutes at room temperature. […] When the cells reached about 90% confluence (approximately 3 days between passages), the cells were passaged and used for either the agonist or antagonist assays as described below.
The cells were prepared for Gi/cAMP assays as described above. The assays were performed using a PE Lance Ultra cAMP kit (TRF0263). The cells were grown on 225 mm dishes, then washed once with 1×PBS (Cellgro) before digestion with 2.5 ml 1× Detachment reagent (DRX 92-0009) for about 2 minutes. PBS (20 ml) was then added to the plate, and the cells were transferred to a 50 ml centrifuge tube, and centrifuged at room temperature using BD Dynac III, at 1200 rpm for 5 minutes. […] The plates were then incubated at room temperature for about 30 minutes before addition of Eu-cAMP tracer solution (10 μl, PerkinElmer) and then ULight-anti-cAMP solution (10 μl) to each well.
Assay [3] deals with T1, human D2R/β-arrestin. The assay can be described thus: Gi/cAMP agonist assay (Lance Ultra cAMP, forskolin). As to conditions: CHO-K1 cells expressing human D2R/β-arrestin; agonist mode, 2.5 μM forskolin. In kind it is cell-based. Here is the method: Eu-cAMP tracer solution (10 μl, PerkinElmer, 360 μl of Tracer in 17.64 ml kit buffer) and ULight-anti-cAMP solution (10 μl, 120 μL antibody in 17.88 ml kit buffer) was then added to each well.

In assay [4] the target is T1, human D2R/β-arrestin. The assay can be described thus: β-arrestin agonist assay (PathHunter). As to conditions: CHO-K1 cells expressing human D2R/β-arrestin; agonist mode. In kind it is cell-based. Here is the method:
The detection reagent (9.6 μL, Buffer:Emerald II:Galactor-Star in a 19:5:1 ratio, i.e., 14.06 mL:3.7 mL:0.74 mL=18.5 mL) was then added to the agonist plates.

T1 sequence (P14416 whole entry): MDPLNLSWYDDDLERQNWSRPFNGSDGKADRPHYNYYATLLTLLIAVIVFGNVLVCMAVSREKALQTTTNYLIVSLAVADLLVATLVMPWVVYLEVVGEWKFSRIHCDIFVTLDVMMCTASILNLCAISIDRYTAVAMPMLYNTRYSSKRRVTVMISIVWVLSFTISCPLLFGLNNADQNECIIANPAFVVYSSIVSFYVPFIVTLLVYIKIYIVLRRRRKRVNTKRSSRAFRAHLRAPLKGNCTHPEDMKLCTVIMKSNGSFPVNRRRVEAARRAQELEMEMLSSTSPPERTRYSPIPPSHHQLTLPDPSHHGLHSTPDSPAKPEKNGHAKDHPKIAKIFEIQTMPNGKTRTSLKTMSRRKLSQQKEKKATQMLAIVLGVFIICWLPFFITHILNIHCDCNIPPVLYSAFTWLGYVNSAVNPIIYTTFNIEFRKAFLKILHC

Turning to `CC1(C(=O)Nc2ccccc2)CCN(CCOc2ccccc2C(F)(F)F)CC1` [Compound 219, 4-methyl-N-phenyl-1-(2-(2-(trifluoromethyl)phenoxy)ethyl)piperidine-4-carboxamide], the IC50 at human D2R/β-arrestin [1] and against human D2R/β-arrestin [2] was 0.1 to 1 µM each time. Besides, the EC50 on human D2R/β-arrestin [3] and at human D2R/β-arrestin [4] was greater than 30 µM in each case.
Take `CC1(C(=O)Nc2ccccc2)CCN(CCOc2ccccc2F)CC1` [Compound 220, 1-(2-(2-fluorophenoxy)ethyl)-4-methyl-N-phenylpiperidine-4-carboxamide]: the IC50 against human D2R/β-arrestin [1] and against human D2R/β-arrestin [2] was 0.1 to 1 µM throughout. For the same molecule, the EC50 on human D2R/β-arrestin [3] was 0.1 to 1 µM; on human D2R/β-arrestin [4] it was greater than 30 µM.
For the molecule `OC1(Cc2ccccc2F)CCN(CCOc2ccccc2)C1` (stereo not shown) [Compound 300, 3-(2-fluorobenzyl)-1-(2-phenoxyethyl)pyrrolidin-3-ol, reference compound], the IC50 against human D2R/β-arrestin [1] was 10 to 30 µM; against human D2R/β-arrestin [2], greater than 30 µM. In addition, the EC50 at human D2R/β-arrestin [3] is 0.1 to 1 µM; on human D2R/β-arrestin [4] it was greater than 30 µM.
In the case of `COc1ccccc1OCCN1CCC(C)(O)CC1` [Compound 301, reference compound], the IC50 lay in the range of 1 to 10 µM against human D2R/β-arrestin [1] and 0.1 to 1 µM at human D2R/β-arrestin [2]. Besides, the EC50 on human D2R/β-arrestin [3] and on human D2R/β-arrestin [4] was greater than 30 µM each time.
`C#CC1(O)CCN(CCOc2ccccc2C(F)(F)F)CC1` [Compound 302, 4-ethynyl-1-(2-(2-(trifluoromethyl)phenoxy)ethyl)piperidin-4-ol, reference compound]: the IC50 against human D2R/β-arrestin [1] and against human D2R/β-arrestin [2] was less than 0.1 µM in each case. For the same molecule, the EC50 at human D2R/β-arrestin [3] and on human D2R/β-arrestin [4] was greater than 30 µM throughout.
With `CC1(N)CCN(C[C@H]2COc3ccccc3O2)CC1` [Compound 303, reference compound], the IC50 against human D2R/β-arrestin [1] is 10 to 30 µM; against human D2R/β-arrestin [2] it was greater than 30 µM. For the same molecule, the EC50 on human D2R/β-arrestin [3] was 0.1 to 1 µM; at human D2R/β-arrestin [4], greater than 30 µM.
On to `CC1(Oc2cccc([N+](=O)[O-])c2)CCN(CCOc2ccccc2)C1` (stereo not shown) [Example 40, 3-Methyl-3-(3-nitrophenoxy)-1-(2-phenoxyethyl)pyrrolidine], for which the IC50 was 1 to 10 µM on human D2R/β-arrestin [1] and greater than 30 µM at human D2R/β-arrestin [2]. The EC50 is 0.1 to 1 µM at human D2R/β-arrestin [3] and greater than 30 µM on human D2R/β-arrestin [4].
`CC1(Oc2cccc(N)c2)CCN(CCOc2ccccc2)C1` (stereo not shown) [Example 41, 3-((3-methyl-1-(2-phenoxyethyl)pyrrolidin-3-yl)oxy)aniline]: the IC50 against human D2R/β-arrestin [1] was 10 to 30 µM; at human D2R/β-arrestin [2], greater than 30 µM. The EC50 is 0.1 to 1 µM at human D2R/β-arrestin [3] and greater than 30 µM at human D2R/β-arrestin [4].
Consider `CC1(Oc2cccc(Cl)c2)CCN(CCOc2ccccc2)C1` (stereo not shown) [Example 42, 3-(3-chlorophenoxy)-3-methyl-1-(2-phenoxyethyl)pyrrolidine], for which the IC50 on human D2R/β-arrestin [1] was 1 to 10 µM; against human D2R/β-arrestin [2], greater than 30 µM. In addition, the values for the EC50 at human D2R/β-arrestin [3] and at human D2R/β-arrestin [4] were less than 0.1 µM and greater than 30 µM, respectively.
As for `CC1(Oc2ccc([N+](=O)[O-])cc2)CCN(CCOc2ccccc2)C1` (stereo not shown) [Example 43, 3-Methyl-3-(4-nitrophenoxy)-1-(2-phenoxyethyl)pyrrolidine], the IC50 against human D2R/β-arrestin [1] is 1 to 10 µM; against human D2R/β-arrestin [2] it was greater than 30 µM. Also, the EC50 on human D2R/β-arrestin [3] and at human D2R/β-arrestin [4] was greater than 30 µM each time.
For the molecule `CC1(Oc2ccc(N)cc2)CCN(CCOc2ccccc2)C1` (stereo not shown) [Example 44, 4-((3-methyl-1-(2-phenoxyethyl)pyrrolidin-3-yl)oxy)aniline], the IC50 on human D2R/β-arrestin [1] and at human D2R/β-arrestin [2] was greater than 30 µM in each case. For the same molecule, the EC50 at human D2R/β-arrestin [3] is less than 0.1 µM; on human D2R/β-arrestin [4], 0.1 to 1 µM.
For the molecule `CC1(Oc2ccccc2[N+](=O)[O-])CCN(CCOc2ccccc2)C1` (stereo not shown) [Example 45, 3-methyl-3-(2-nitrophenoxy)-1-(2-phenoxyethyl)pyrrolidine], the IC50 against human D2R/β-arrestin [1] was 1 to 10 µM; against human D2R/β-arrestin [2] it was greater than 30 µM. Further, the EC50 was less than 0.1 µM at human D2R/β-arrestin [3] and greater than 30 µM on human D2R/β-arrestin [4].
For `CC1(Oc2ccccc2Cl)CCN(CCOc2ccccc2)C1` (stereo not shown) [Example 47, 3-(2-chlorophenoxy)-3-methyl-1-(2-phenoxyethyl)pyrrolidine], the IC50 was 1 to 10 µM at human D2R/β-arrestin [1] and greater than 30 µM against human D2R/β-arrestin [2]. Further, the values for the EC50 on human D2R/β-arrestin [3] and at human D2R/β-arrestin [4] were 0.1 to 1 µM and greater than 30 µM, respectively.
As to `CC1(Oc2ccc(Cl)cc2Cl)CCN(CCOc2ccccc2)C1` (stereo not shown) [Example 48, 3-(2,4-dichlorophenoxy)-3-methyl-1-(2-phenoxyethyl)pyrrolidine], the IC50 against human D2R/β-arrestin [1] is 10 to 30 µM; on human D2R/β-arrestin [2] it was greater than 30 µM. Besides, the EC50 was less than 0.1 µM on human D2R/β-arrestin [3] and greater than 30 µM on human D2R/β-arrestin [4].
For `CC1(Oc2cccc(Cl)c2Cl)CCN(CCOc2ccccc2)C1` (stereo not shown) [Example 49, 3-(2,3-dichlorophenoxy)-3-methyl-1-(2-phenoxyethyl)pyrrolidine], the values for the half-inhibitory concentration (IC50) against human D2R/β-arrestin [1] and at human D2R/β-arrestin [2] were 10 to 30 µM and greater than 30 µM, respectively. The EC50 at human D2R/β-arrestin [3] was 0.1 to 1 µM; on human D2R/β-arrestin [4], greater than 30 µM.
As to `CC1(Oc2ccc(F)cc2)CCN(CCOc2ccccc2)C1` (stereo not shown) [Example 51, 3-(4-fluorophenoxy)-3-methyl-1-(2-phenoxyethyl)pyrrolidine], the figures for the IC50 on human D2R/β-arrestin [1] and against human D2R/β-arrestin [2] were 0.1 to 1 µM and greater than 30 µM, respectively. Besides, the EC50 at human D2R/β-arrestin [3] was less than 0.1 µM; on human D2R/β-arrestin [4], greater than 30 µM.
Turning to `CC1(Oc2cccc(F)c2)CCN(CCOc2ccccc2)C1` (stereo not shown) [Example 52, 3-(3-fluorophenoxy)-3-methyl-1-(2-phenoxyethyl)pyrrolidine], the IC50 against human D2R/β-arrestin [1] is 1 to 10 µM; against human D2R/β-arrestin [2], greater than 30 µM. Also, the results for the EC50 on human D2R/β-arrestin [3] and at human D2R/β-arrestin [4] were less than 0.1 µM and greater than 30 µM, respectively.
`CC1(Oc2ccccc2C(F)(F)F)CCN(CCOc2ccccc2)C1` (stereo not shown) [Example 56, 3-Methyl-1-(2-phenoxyethyl)-3-(2-(trifluoromethyl)phenoxy) pyrrolidine]: the IC50 against human D2R/β-arrestin [1] and against human D2R/β-arrestin [2] was 1 to 10 µM in each case. In addition, the values for the EC50 on human D2R/β-arrestin [3] and on human D2R/β-arrestin [4] were less than 0.1 µM and greater than 30 µM, respectively.
Take `CC1(Oc2ccccn2)CCN(CCOc2ccccc2)C1` (stereo not shown) [Example 57, 2-((3-methyl-1-(2-phenoxyethyl)pyrrolidin-3-yl)oxy)pyridine]: the IC50 is 1 to 10 µM against human D2R/β-arrestin [1] and greater than 30 µM against human D2R/β-arrestin [2]. Further, the figures for the EC50 on human D2R/β-arrestin [3] and on human D2R/β-arrestin [4] were 0.1 to 1 µM and greater than 30 µM, respectively.
`CC1(Oc2cccnc2)CCN(CCOc2ccccc2)C1` (stereo not shown) [Example 58, 3-((3-methyl-1-(2-phenoxyethyl)pyrrolidin-3-yl)oxy)pyridine]: the IC50 on human D2R/β-arrestin [1] and against human D2R/β-arrestin [2] was greater than 30 µM throughout. The EC50 at human D2R/β-arrestin [3] was less than 0.1 µM; at human D2R/β-arrestin [4], 1 to 10 µM.
For `CC1(Oc2cnccn2)CCN(CCOc2ccccc2)C1` (stereo not shown) [Example 60, 2-((3-methyl-1-(2-phenoxyethyl)pyrrolidin-3-yl)oxy)pyrazine], the IC50 at human D2R/β-arrestin [1] and on human D2R/β-arrestin [2] was greater than 30 µM in each case. The values for the EC50 on human D2R/β-arrestin [3] and on human D2R/β-arrestin [4] were less than 0.1 µM and 0.1 to 1 µM, respectively.
As to `CC1(Oc2cccc(C(F)(F)F)c2)CCCN(CCOc2ccccc2F)C1` (stereo not shown) [Example 61, 1-(2-(2-Fluorophenoxy)ethyl)-3-methyl-3-(3-(trifluoromethyl)phenoxy) piperidine], the IC50 lay in the range of 1 to 10 µM against human D2R/β-arrestin [1] and 0.1 to 1 µM against human D2R/β-arrestin [2]. Further, the EC50 at human D2R/β-arrestin [3] and at human D2R/β-arrestin [4] was greater than 30 µM in each case.
Turning to `CC1(Oc2cccc(C(F)(F)F)c2)CCCN(CCOc2cc(F)ccc2F)C1` (stereo not shown) [Example 62, 1-(2-(2,5-Difluorophenoxy)ethyl)-3-methyl-3-(3-(trifluoromethyl)phenoxy)piperidine], the IC50 against human D2R/β-arrestin [1] and against human D2R/β-arrestin [2] was 1 to 10 µM in each case. Also, the EC50 at human D2R/β-arrestin [3] and at human D2R/β-arrestin [4] was greater than 30 µM each time.
Turning to `CC1(Oc2cccc(C(F)(F)F)c2)CCCN(CCOc2ccccc2Cl)C1` (stereo not shown) [Example 63, 1-(2-(2-Chlorophenoxy)ethyl)-3-methyl-3-(3-(trifluoromethyl)phenoxy) piperidine], the IC50 against human D2R/β-arrestin [1] and against human D2R/β-arrestin [2] was 1 to 10 µM each time. Besides, the half-maximal effective concentration (EC50) on human D2R/β-arrestin [3] and on human D2R/β-arrestin [4] was greater than 30 µM throughout.
For the molecule `CC1(Oc2cccc(C(F)(F)F)c2)CCN(CCOc2ccccc2F)C1` (stereo not shown) [Example 64, 1-(2-(2-fluorophenoxy)ethyl)-3-methyl-3-(3-(trifluoromethyl)phenoxy) pyrrolidine], the IC50 against human D2R/β-arrestin [1] was 10 to 30 µM; against human D2R/β-arrestin [2], greater than 30 µM. Also, the 50% effective concentration (EC50) was 0.1 to 1 µM on human D2R/β-arrestin [3] and greater than 30 µM at human D2R/β-arrestin [4].
In the case of `CC1(Oc2cccc(C(F)(F)F)c2)CCN(CCOc2ccccc2Cl)C1` (stereo not shown) [Example 65, 1-(2-(2-Chlorophenoxy)ethyl)-3-methyl-3-(3-(trifluoromethyl)phenoxy) pyrrolidine], the results for the IC50 against human D2R/β-arrestin [1] and against human D2R/β-arrestin [2] were 1 to 10 µM and 0.1 to 1 µM, respectively. For the same molecule, the EC50 on human D2R/β-arrestin [3] and on human D2R/β-arrestin [4] was greater than 30 µM throughout.
For the molecule `CC1(Oc2cccc(C(F)(F)F)c2)CCN(CCOc2cc(F)ccc2F)C1` (stereo not shown) [Example 66, 1-(2-(2,5-difluorophenoxy)ethyl)-3-methyl-3-(3-(trifluoromethyl)phenoxy)pyrrolidine], the IC50 against human D2R/β-arrestin [1] fell in the range of 1 to 10 µM; against human D2R/β-arrestin [2], 10 to 30 µM. Besides, the values for the EC50 at human D2R/β-arrestin [3] and on human D2R/β-arrestin [4] were less than 0.1 µM and greater than 30 µM, respectively.
On to `CC1(Oc2ccccc2)CCN(CCOc2cccc(C(F)(F)F)c2)CC1` [Example 67, 4-methyl-4-phenoxy-1-(2-(3-(trifluoromethyl)phenoxy)ethyl)piperidine], for which the IC50 against human D2R/β-arrestin [1] is 0.1 to 1 µM; on human D2R/β-arrestin [2] it was greater than 30 µM. Moreover, the EC50 at human D2R/β-arrestin [3] is less than 0.1 µM; on human D2R/β-arrestin [4] it was greater than 30 µM.

A word on the IC50: it is the midpoint of a concentration-inhibition curve. The low end stands for greater potency in that assay, the high end for weaker potency in that assay. As a reminder, the EC50 is the concentration needed to bring the measured effect to its halfway point. A high value points to a less potent agent.
